In patent US7879848B2, “Dipeptidyl Peptidase-IV inhibiting compounds, method of preparing the same, and pharmaceutical compositions containing the same as an active agent” (LG Life Sciences, Ltd., priority 2005, dated 2011):

Biological target: T1, Dipeptidyl Peptidase-IV (DPP-IV) (Homo sapiens, UniProt P27487)
T1 construct: made in house
Experiment: Measurement of DPP-IV Activity-Inhibiting Ability (fluorescent substrate Ac-Gly-Pro-AFC)
Type: biochemical
Settings: 25° C., 50 mmol HEPES (pH 7.4), DP-IV 7.1 nM, enzyme reaction for 1 hour
Description: Dipeptidyl Peptidase-IV (DPP-IV), known as serine protease, was obtained by a modification of the known method (Tanaka T. et al, Proc. Natl. Acad. Sci. USA, (1994) 91, 3082-3086), which comprises cloning, purification by use of Baculo-Virus and activation steps. DPP-IV was used to test the pharmaceutical efficacy of candidate inhibitors as follows. The cloned DP-IV was expressed in Baculo-Virus, which was purified by nickel column and then subjected to dialysis. The inhibitors synthesized in Examples were tested to determine the binding activity there of using a fluorescent substrate, Ac-Gly-Pro-AFC. Enzyme reactions were conducted for various concentrations of inhibitors, using 100 µM Ac-Gly-Pro-AFC at 25° C. in a buffer solution containing 50 mmol HEPES (pH 7.4), with the concentration of DP-IV being 7.1 nM. […] As the fluorescent spectrometer, Spectra MAX GeminiXS fluorescent spectrometer from Molecular Device Co. was used and the excitation frequency and emission frequency were set to 400 nm and 505 nm, respectively.

T1 sequence (P27487 whole entry): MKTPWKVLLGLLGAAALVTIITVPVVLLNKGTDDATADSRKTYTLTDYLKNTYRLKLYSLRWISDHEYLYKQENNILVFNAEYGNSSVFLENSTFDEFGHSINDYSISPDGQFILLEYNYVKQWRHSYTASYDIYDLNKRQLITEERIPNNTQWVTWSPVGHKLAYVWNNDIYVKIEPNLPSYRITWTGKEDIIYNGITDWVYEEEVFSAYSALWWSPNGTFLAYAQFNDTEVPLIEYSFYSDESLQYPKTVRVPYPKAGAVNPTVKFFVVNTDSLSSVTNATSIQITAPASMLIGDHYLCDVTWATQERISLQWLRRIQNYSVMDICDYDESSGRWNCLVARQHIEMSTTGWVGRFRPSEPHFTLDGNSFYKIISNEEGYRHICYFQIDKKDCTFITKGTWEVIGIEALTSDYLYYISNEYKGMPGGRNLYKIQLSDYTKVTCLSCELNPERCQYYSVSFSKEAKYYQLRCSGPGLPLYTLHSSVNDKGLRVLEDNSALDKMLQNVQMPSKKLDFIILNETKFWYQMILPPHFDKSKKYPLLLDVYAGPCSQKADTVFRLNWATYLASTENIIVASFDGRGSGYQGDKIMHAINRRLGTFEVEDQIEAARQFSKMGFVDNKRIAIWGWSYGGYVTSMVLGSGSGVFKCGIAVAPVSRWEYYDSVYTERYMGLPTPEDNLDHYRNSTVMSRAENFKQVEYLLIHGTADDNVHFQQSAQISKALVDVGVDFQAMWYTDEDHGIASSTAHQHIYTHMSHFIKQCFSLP

Compound	IC50 [nM]
N[C@@H](CC(=O)N1CCc2c(nc(-c3cccs3)nc2C(F)(F)F)C1)CN1CC(F)(F)CCC1=O [Ex. 63, 1-{(2S)-2-amino-4-oxo-4-[2-(2-thienyl)-4-(trifluoromethyl)-5,8-dihydropyrido[3,4-d]pyrimidin-7(6H)-yl]butyl}-5,5-difluoropiperidin-2-one]	35
N[C@@H](CC(=O)N1CCc2c(nc(-c3ccco3)nc2C(F)(F)F)C1)CN1CC(F)(F)CCC1=O [Ex. 65, 1-{(2S)-2-amino-4-[2-(2-furyl)-4-(trifluoromethyl)-5,8-dihydropyrido[3,4-d]pyrimidin-7(6H)-yl]-4-oxobutyl}-5,5-difluoropiperidin-2-one]	12
C[C@@H]1CCC(=O)N(C[C@@H](N)CC(=O)N2CCc3c(nc(-c4ccoc4)nc3C(F)(F)F)C2)C1 [Ex. 66, (5R)-1-{(2S)-2-amino-4-[2-(3-furyl)-4-(trifluoromethyl)-5,8-dihydropyrido[3,4-d]pyrimidin-7(6H)-yl]-4-oxobutyl}-5-methylpiperidin-2-one]	16
C[C@@H]1CCC(=O)N(C[C@@H](N)CC(=O)N2CCc3c(nc(-c4ccc[nH]4)nc3C(F)(F)F)C2)C1 [Ex. 68, (5R)-1-{(2S)-2-amino-4-oxo-4-[2-(1H-pyrrol-2-yl)-4-(trifluoromethyl)-5,8-dihydropyrido[3,4-d]pyrimidin-7(6H)-yl]butyl}-5-methylpiperidin-2-one]	72
N[C@@H](CC(=O)N1CCc2c(nc(-c3ccc[nH]3)nc2C(F)(F)F)C1)CN1CC(F)(F)CCC1=O [Ex. 69, 1-{(2S)-2-amino-4-oxo-4-[2-(1H-pyrrol-2-yl)-4-(trifluoromethyl)-5,8-dihydropyrido[3,4-d]pyrimidin-7(6H)-yl]butyl}-5,5-difluoropiperidin-2-one]	55
CCc1nc2c(c(C(F)(F)F)n1)CCN(C(=O)C[C@H](N)CN1CC(F)(F)CCC1=O)C2 [Ex. 72, 1-{(2S)-2-amino-4-[2-ethyl-4-(trifluoromethyl)-5,8-dihydropyrido[3,4-d]pyrimidin-7(6H)-yl]-4-oxobutyl}-5,5-difluoropiperidin-2-one]	23
CCc1nc2c(c(C(F)(F)F)n1)CCN(C(=O)C[C@H](N)CN1C[C@H](C)OCC1=O)C2 [Ex. 73, (6S)-4-{(2S)-2-amino-4-[2-ethyl-4-(trifluoromethyl)-5,8-dihydropyrido[3,4-d]pyrimidin-7(6H)-yl]-4-oxobutyl}-6-methylmorpholine-3-one]	27
CC(C)c1nc2c(c(C(F)(F)F)n1)CCN(C(=O)C[C@H](N)CN1CC(F)(F)CCC1=O)C2 [Ex. 74, 1-{(2S)-2-amino-4-[2-isopropyl-4-(trifluoromethyl)-5,8-dihydropyrido[3,4-d]pyrimidin-7(6H)-yl]-4-oxobutyl}-5,5-difluoropiperidin-2-one]	26
C[C@@H]1CN(C[C@@H](N)CC(=O)N2CCn3c(nnc3C(F)(F)F)C2)C(=O)CO1 [Ex. 77, (6R)-4-{(2S)-2-amino-4-oxo-4-[3-(trifluoromethyl)-5,6-dihydro[1,2,4]triazolo[4,3-a]pyrazin-7(8H)-yl]butyl}-6-methylmorpholine-3-one]	94
C[C@H]1CCC(=O)N(C[C@@H](N)CC(=O)N2CCc3c(nc(C(F)(F)F)nc3C(F)(F)F)C2)C1 [Ex. 80]	8850
C[C@@H]1CCC(=O)N(C[C@@H](N)CC(=O)N2CCc3c(nc(C(F)(F)F)nc3C(F)(F)F)C2)C1 [Ex. 82, (5R)-1-{(2S)-2-amino-4-[2,4-bis(trifluoromethyl)-5,8-dihydropyrido[3,4-d]pyrimidin-7(6H)-yl]-4-oxobutyl}-5-methylpiperidin-2-one]	16
Cc1nc2c(c(C(F)(F)F)n1)CCN(C(=O)C[C@H](N)CN1CC(F)(F)CCC1=O)C2 [Ex. 85, 1-{(2S)-2-amino-4-[2-methyl-4-(trifluoromethyl)-5,8-dihydropyrido[3,4-d]pyrimidin-7(6H)-yl]-4-oxobutyl}-5,5-difluoropiperidin-2-one]	16
Cc1nc2c(c(C(F)(F)F)n1)CCN(C(=O)C[C@H](N)CN1C[C@H](C)OCC1=O)C2 [Ex. 86]	30
C[C@H]1CN(C[C@@H](N)CC(=O)N2CCc3c(ncnc3C(F)(F)F)C2)C(=O)CO1 [Ex. 88, (6S)-4-{(2S)-2-amino-4-oxo-4-[4-(trifluoromethyl)-5,8-dihydropyrido[3,4-d]pyrimidin-7(6H)-yl]butyl}-6-methylmorpholine-3-one]	48

The next lines start with the values.

IC50 [nM]	Compound
32	C[C@@H]1CCC(=O)N(C[C@@H](N)CC(=O)N2CCc3c(nc(-c4cccs4)nc3C(F)(F)F)C2)C1 [Ex. 62, (5R)-1-{(2S)-2-amino-4-oxo-4-[2-(2-thienyl)-4-(trifluoromethyl)-5,8-dihydropyrido[3,4-d]pyrimidin-7(6H)-yl]butyl}-5-methylpiperidin-2-one]
5	C[C@@H]1CCC(=O)N(C[C@@H](N)CC(=O)N2CCc3c(nc(-c4ccco4)nc3C(F)(F)F)C2)C1 [Ex. 64, (5R)-1-{(2S)-2-amino-4-[2-(2-furyl)-4-(trifluoromethyl)-5,8-dihydropyrido[3,4-d]pyrimidin-7(6H)-yl]-4-oxobutyl}-5-methylpiperidin-2-one]
10	N[C@@H](CC(=O)N1CCc2c(nc(-c3ccoc3)nc2C(F)(F)F)C1)CN1CC(F)(F)CCC1=O [Ex. 67, 1-{(2S)-2-amino-4-[2-(3-furyl)-4-(trifluoromethyl)-5,8-dihydropyrido[3,4-d]pyrimidin-7(6H)-yl]-4-oxobutyl}-5,5-difluoropiperidin-2-one]
8	C[C@@H]1CCC(=O)N(C[C@@H](N)CC(=O)N2CCc3c(nc(-c4cccnc4)nc3C(F)(F)F)C2)C1 [Ex. 70, (5R)-1-{(2S)-2-amino-4-oxo-4-[2-pyridin-3-yl-4-(trifluoromethyl)-5,8-dihydropyrido[3,4-d]pyrimidin-7(6H)-yl]butyl}-5-methylpiperidin-2-one]
5	N[C@@H](CC(=O)N1CCc2c(nc(-c3cccnc3)nc2C(F)(F)F)C1)CN1CC(F)(F)CCC1=O [Ex. 71, 1-{(2S)-2-amino-4-oxo-4-[2-pyridin-3-yl-4-(trifluoromethyl)-5,8-dihydropyrido[3,4-d]pyrimidin-7(6H)-yl]butyl}-5,5-difluoropiperidin-2-one]
16	CC(C)c1nc2c(c(C(F)(F)F)n1)CCN(C(=O)C[C@H](N)CN1C[C@H](C)CCC1=O)C2 [Ex. 75, 1-{(2S)-2-amino-4-[2-isopropyl-4-(trifluoromethyl)-5,8-dihydropyrido[3,4-d]pyrimidin-7(6H)-yl]-4-oxobutyl}-5-methylpiperidin-2-one]
30	CC(C)c1nc2c(c(C(F)(F)F)n1)CCN(C(=O)C[C@H](N)CN1C[C@H](C)OCC1=O)C2 [Ex. 76, (6S)-4-{(2S)-2-amino-4-[2-isopropyl-4-(trifluoromethyl)-5,8-dihydropyrido[3,4-d]pyrimidin-7(6H)-yl]-4-oxobutyl}-6-methylmorpholine-3-one]
163	C[C@H]1CN(C[C@@H](N)CC(=O)N2CCn3c(nnc3C(F)(F)F)C2)C(=O)CO1 [Ex. 78, (6S)-4-{(2S)-2-amino-4-oxo-4-[3-(trifluoromethyl)-5,6-dihydro[1,2,4]triazolo[4,3-a]pyrazin-7(8H)-yl]butyl}-6-methylmorpholine-3-one]
385	C[C@H]1CCC(=O)N(C[C@@H](N)CC(=O)N2CCn3c(nnc3C(F)(F)F)C2)C1 [Ex. 79, (5S)-1-{(2S)-2-amino-4-oxo-4-[3-(trifluoromethyl)-5,6-dihydro[1,2,4]triazolo[4,3-a]pyrazin-7(8H)-yl]butyl}-5-methylpiperidin-2-one]
10	Cc1nc2c(c(C(F)(F)F)n1)CCN(C(=O)C[C@H](N)CN1C[C@H](C)CCC1=O)C2 [Ex. 81, (5R)-1-{(2S)-2-amino-4-[2-methyl-4-(trifluoromethyl)-5,8-dihydropyrido[3,4-d]pyrimidin-7(6H)-yl]-4-oxobutyl}-5-methylpiperidin-2-one]
38	C[C@H]1CN(C[C@@H](N)CC(=O)N2CCc3c(nc(C(F)(F)F)nc3C(F)(F)F)C2)C(=O)CO1 [Ex. 84]
29	N[C@@H](CC(=O)N1CCc2c(ncnc2C(F)(F)F)C1)CN1CC(F)(F)CCC1=O [Ex. 87, 1-{(2S)-2-amino-4-oxo-4-[4-(trifluoromethyl)-5,8-dihydropyrido[3,4-d]pyrimidin-7(6H)-yl]butyl}-5,5-difluoropiperidin-2-one]
214	N[C@@H](CC(=O)N1CCn2c(nnc2C(F)(F)C(F)(F)F)C1)CN1CC(F)(F)CCC1=O [Ex. 89, 1-{(2S)-2-amino-4-oxo-4-[3-(pentafluoroethyl)-5,6-dihydro[1,2,4]triazolo[4,3-a]pyrazin-7(8H)-yl]butyl}-5,5-difluoropiperidin-2-one]
356	C[C@H]1CN(C[C@@H](N)CC(=O)N2CCn3c(nnc3C(F)(F)C(F)(F)F)C2)C(=O)CO1 [Ex. 90, (6S)-4-{(2S)-2-amino-4-oxo-4-[3-(pentafluoroethyl)-5,6-dihydro[1,2,4]triazolo[4,3-a]pyrazin-7(8H)-yl]butyl}-6-methylmorpholine-3-one]
85	CC1CN(C[C@@H](N)CC(=O)N2CCc3c(nc(C(F)(F)F)nc3C(F)(F)F)C2)C(=O)CS1 (stereo partly drawn) [Ex. 91, 4-{(2S)-2-amino-4-[2,4-bis(trifluoromethyl)-5,8-dihydropyrido[3,4-d]pyrimidin-7(6H)-yl]-4-oxobutyl}-6-methylthiomorpholin-3-one]
